Experimental data from PubChem BioAssay AID1963833 (Molecular Pharmacology Branch, DTP, NCI, 2024).
pIC50: −log10 of the molar value. Values joined by “and” are separate entries in the source; they are usually repeats but may differ in a detail not shown here. Identical values can stand only once.

Tested on: 883617-216-R-J1-PDC complex spheroid viability
Assay: Anticancer human tumor 883617-216-R-J1-PDC patient-derived bladder carcinoma cell line growth inhibition [POLQ]
Details: for viability, T/C: stronger effect = lower value
Protocol: Multicellular complex tumor spheroid response to Polymerase (POL) inhibitors (novobiocin, ART-558, RP6685) in combination with a variety of drugs and investigational agents in selected tumor cell lines
The POL inhibitors (novobiocin, ART-558, and RP6685) were evaluated both individually and in combination with standard of care and investigational anticancer small molecules within a complex spheroid model of solid tumors. . Complex spheroids include a stromal component modeled by human endothelial cells (HUVEC) and fibroblasts modeled by human mesenchymal stem cells (MSCs). The concentration ranges selected for each drug and investigational agent were based upon clinically achievable concentrations if the clinical Cmax of the agent was known.
Compounds. The drugs and investigational agents: novobiocin (NSC847541), ART-558 (NSC835418), RP-6685 (NSC848927), peposertib (NSC802822), ceralasertib (NSC780249), elimusertib (NSC800525), camonsertib (NSC841442), AZD-1390 (NSC803789), olaparib (NSC753686), talazoparib (NSC767125), rucaparib (NSC756644), sotorasib (NSC818433), MRTX-1133 (NSC836407), SN-38 (NSC673596), topotecan (NSC609699), epotoside (NSC141540), doxorubicin (NSC123127), gemcitabine (NSC613327), 5-fluorouracil (NSC19893), paclitaxel (NSC125973), vemurafenib (NSC761431), MSA-2 (NSC828583), SN-011 (NSC837082), adavosertib (NSC754352), prexasertib (NSC758257), carboplatin (NSC241240) and oxaliplatin (NSC266046), were obtained from the National Cancer Institute (NCI) Developmental Therapeutics Program Chemical Repository (21). The FDA-approved anticancer drug set is available from the Developmental Therapeutics Program at https://dtp.cancer.gov/organization/dscb/obtaining/. […] The stock solutions were prepared in dimethyl sulfoxide (DMSO, Sigma-Aldrich, St. Louis, MO, cat. D2650), except for the platinum compounds which were prepared in saline (Quality Biological, Gaithersburg, MD, cat. 114-055-101), at 800-fold the tested concentration and stored at -70 degrees C prior to their use. All drugs and investigational agents were tested over a range starting from a high concentration at or near the clinical Cmax and decreasing in half-log increments. If the clinical Cmax for an agent had not been determined, the highest concentration tested was 10 microM, except for SN-38, which was tested at a high concentration of 1 microM.
Cell Culture. All cells were maintained in an incubator at 37 degrees C and 5% CO2 with 95% humidity. The PDC lines were cultured according to standard operating procedures established by the NCI PDMR (https://pdmr.cancer.gov). Table 3 of the manuscript, lists the cell lines along with the number of the three cell types plated to form the mct-spheroids and media for tumor cell growth. After thawing, all PDC lines, except 997537-175-T-J1-PDC and 415267-285-R-J2-PDC, were cultured in Matrigel-coated flasks prepared with a working solution of 1X Ham's F-12 nutrient mix, without supplementation (Thermo Fisher Scientific, cat. 11765054), 100 U/mL penicillin-streptomycin (Thermo Fisher Scientific, cat. 15140122), and 2.5% Matrigel (Corning Inc., Corning, NY, cat. 354248) for the first three passages. The two PDC lines 997537-175-T-J1-PDC and 415267-285-R-J2-PDC were cultured on uncoated flasks. The 857933-349-R-J2-PDC line was cultured in 6C/Colon 1B media containing advanced DMEM/F-12 (Thermo Fisher Scientific, cat. 12634028), 10 mM HEPES (Thermo Fisher Scientific, cat. 15630080), 1X GlutaMAX supplement (Thermo Fisher Scientific, cat. 35050061), 0.1 mg/mL primocin (InvivoGen, San Diego, CA, cat. ant-pm-2), 10% defined fetal bovine serum, heat inactivated (HyClone Laboratories Inc., Logan, UT, cat. SH30070.03HI), 50% L-WRN conditioned media (ATCC, cat. CRL-3276), 1.25 mM N-Acetyl-L-cysteine (Sigma-Aldrich, cat. A9165), 10 mM nicotinamide (Sigma-Aldrich, cat. N0636), 1X B-27 supplement (Thermo Fisher Scientific, cat. 17504044), 1X N-2 supplement (Thermo Fisher Scientific, cat. […]

[1] = compound alone, run of 01/08/2024
[2] = compound alone, run of 01/19/2024
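Note: spheroids exposed to compounds for seven days before readout.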
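Throughout, for viability, T/C: 100% = DMSO vehicle control viability.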

Structure (SMILES)	viability, T/C (compound 0.0316 µM)	viability, T/C (compound 0.1 µM)	viability, T/C (compound 0.316 µM)	viability, T/C (compound 1 µM)	viability, T/C (compound 3.16 µM)	viability, T/C (compound 10 µM)	pIC50 (curve of compound)	pIC50 [1]	viability, T/C (compound 0.00316 µM)	viability, T/C (compound 0.01 µM)	pIC50 [2]	viability, T/C (compound 0.000316 µM)	viability, T/C (compound 0.001 µM)
CNCc1ccc(-c2[nH]c3cc(F)cc4c3c2CCNC4=O)cc1	92.6% and 94.5% and 97.7%	92% and 95.6% and 100%	96.7% and 92.8% and 89.4%	96.9% and 93.2% and 104%	95.2% and 98.2% and 99.7%	77.3% and 88.2% and 74.5%	< 5.00						
COC1C(OC(N)=O)C(O)C(Oc2ccc3c(O)c(NC(=O)c4ccc(O)c(CC=C(C)C)c4)c(=O)oc3c2C)OC1(C)C (stereo unspecified)	98.8% [middle of 13 runs]	99.7% [middle of 13 runs]		103% [middle of 13 runs]	100% [middle of 12 runs]			< 5.00					
COc1cc(C2c3cc4c(cc3C(OC3OC5COC(C)OC5C(O)C3O)C3COC(=O)C23)OCO4)cc(OC)c1O (stereo unspecified)	99.9% and 95.2% and 109%	86.2% and 78.2% and 89.1%	85.3% and 96.4% and 83.7%	63.6% and 76.7% and 66.2%	61.5% and 67.9% and 60%	47.5% and 57.3% and 49.9%	5.09 and < 5.00						
COc1cc2cc(C(=O)CCC(=O)O)sc2cc1OC	95.8% and 105% and 103%	112% and 90% and 89.7%	91.7% and 102% and 96.7%	99.3% and 108% and 87.7%	105% and 96.4% and 83.4%	104% and 107% and 93.9%	< 5.00						
COc1ccc([C@@H](O)c2cc(-c3ncnc4cc(N5CCOCC5)ccc34)c(F)cc2Cl)nn1	99% and 86.7% and 96.3%	73% and 81.7% and 93.3%	81.5% and 83.3% and 94%	62.8% and 61.7% and 69%	48.3% and 47.9% and 48.8%	30.1% and 35.8% and 31.2%	5.58 and 5.61 and 5.57						
COc1cccc(OCCCN)c1-c1cc(Nc2cnc(C#N)cn2)n[nH]1	52.6% and 55.5% and 49%	40.9% and 44.4% and 45.3%	34.2% and 34.5% and 41.7%	25% and 30.4% and 35.5%			7.39 and 7.24 and 7.51		98.3% and 89.8% and 106%	69.9% and 82.7% and 93.2%			
COc1cccc2c1C(=O)c1c(O)c3c(c(O)c1C2=O)CC(O)(C(=O)CO)CC3OC1CC(N)C(O)C(C)O1 (stereo unspecified)	61.8% and 66.7% and 64%	56.7% and 69.8% and 55.9%	51.5% and 57.7% and 47.7%	10.3% and 22.2% and 5.53%	0.4% and 0.3% and 0.29%	0.27% and 0.25% and 0.3%	6.48 and 6.39 and 6.61						
Cc1cccc(N(C)C(=O)C2C(O)CCN2c2nc(C)cc(C(F)(F)F)c2C#N)c1 (stereo unspecified)	102% [middle of 13 runs]		99.2% [middle of 13 runs]	100% [middle of 13 runs]	101% [middle of 13 runs]	105% [middle of 13 runs]		< 5.00			< 5.00		
Cn1ncnc1[C@H]1c2n[nH]c(=O)c3cc(F)cc(c23)N[C@@H]1c1ccc(F)cc1	70% and 80.9% and 83.5%	65.7% and 71.8% and 69.7%					< 7.00		87.6% and 95.6% and 95.1%	83.5% and 90% and 77.4%		94.7% and 100% and 90.6%	85.8% and 100% and 85.9%
Nc1ccc(C#CCN(C(=O)Cc2ncc(C(F)(F)F)cc2C(F)(F)F)c2ccc(F)cc2)nn1	102% [middle of 13 runs]	98% [middle of 13 runs]	102% [middle of 13 runs]	99.9% [middle of 13 runs]	104% [middle of 13 runs]	112% [middle of 13 runs]					< 5.00		
Nc1ccn(C2OC(CO)C(O)C2(F)F)c(=O)n1 (stereo unspecified)	32.7% and 33% and 32.6%	30.6% and 36.1% and 29.3%	32.9% and 36.7% and 46.2%	39.7% and 42.4% and 33.9%	36.2% and 41.4% and 31.7%	26.8% and 42.1% and 30.9%	> 7.50						
O=C(Nc1ccc(O)c(NS(=O)(=O)c2ccc(F)cc2)c1)c1ccc(-c2ccccc2)cc1	87.6% and 93.4% and 107%	107% and 88.9% and 92.8%	91.6% and 80.3% and 81.8%	89.6% and 92.9% and 90.9%	99.8% and 81.8% and 76.2%	75.6% and 74.6% and 59%	< 5.00						
O=C(c1cc(Cc2n[nH]c(=O)c3ccccc23)ccc1F)N1CCN(C(=O)C2CC2)CC1	88.1% and 93% and 83.1%	82.1% and 100% and 97.3%	92.3% and 104% and 81.8%	87.4% and 87.5% and 87.9%	91% and 82.4% and 88.4%	58.5% and 61.9% and 69.8%	< 5.00						
O=c1[nH]cc(F)c(=O)[nH]1	108% and 102% and 103%	89.4% and 107% and 89.8%	109% and 106% and 81.9%	88.9% and 89.1% and 97.6%	79.5% and 85.3% and 88.3%	65.1% and 78.3% and 64.8%	< 5.00						
